Data: US7888386B2, “3-(phenoxyphenylmethyl)pyrrolidine compounds” (Theravance, Inc., priority 2008, dated 2011)
Where two headings read alike, the source gives them in different places.

Legend:
hSERT = molecular target: T1, hSERT (Homo sapiens, UniProt P31645); assay: hSERT binding assay (Assay 1)
T1 construct: expressed in transfected cells; host or cells: HEK-293 derived cell line, stably transfected; membrane preparation
In short: (§1)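 Membranes from HEK-293 cells stably expressing human NET or SERT competed test compound against ^3H-nisoxetine (hNET) or ^3H-citalopram (hSERT). Buffer was 50 mM Tris-HCl pH 7.4, 120 mM NaCl, 5 mM KCl, 0.1% BSA and 400 μM ascorbic acid.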

hNET = molecular target: T2, hNET (Homo sapiens, UniProt P23975); assay: hNET binding assay (Assay 1)
T2 construct: expressed in transfected cells; host or cells: HEK-293 derived cell line, stably transfected; membrane preparation
T2 sequence (P23975 whole entry): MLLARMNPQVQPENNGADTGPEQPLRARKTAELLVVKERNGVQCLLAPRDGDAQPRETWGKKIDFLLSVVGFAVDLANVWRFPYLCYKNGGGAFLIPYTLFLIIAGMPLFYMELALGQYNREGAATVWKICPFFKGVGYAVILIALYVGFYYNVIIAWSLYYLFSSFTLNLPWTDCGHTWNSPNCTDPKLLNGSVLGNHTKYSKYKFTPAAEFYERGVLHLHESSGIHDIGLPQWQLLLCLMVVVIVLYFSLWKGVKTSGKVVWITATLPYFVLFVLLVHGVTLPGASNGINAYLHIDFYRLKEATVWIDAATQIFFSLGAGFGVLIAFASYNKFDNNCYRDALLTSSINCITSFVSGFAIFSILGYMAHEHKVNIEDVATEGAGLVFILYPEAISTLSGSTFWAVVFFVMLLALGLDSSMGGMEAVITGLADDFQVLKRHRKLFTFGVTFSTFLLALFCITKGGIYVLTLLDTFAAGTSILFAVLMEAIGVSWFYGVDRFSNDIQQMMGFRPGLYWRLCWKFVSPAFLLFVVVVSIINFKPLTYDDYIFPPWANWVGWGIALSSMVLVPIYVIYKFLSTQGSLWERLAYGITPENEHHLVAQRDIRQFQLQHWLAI
In short: as §1

[1] = Thermal analysis (DSC) of crystalline salt; type: physicochemical; conditions: crystalline monohydrochloride salt, heating ramp 10° C./min
Procedure: Differential scanning calorimetry (DSC) was performed using a TA Instruments Model Q-100 module with a Thermal Analyst controller. Data were collected and analyzed using TA Instruments Thermal Solutions software. A 1.64 mg sample of the crystalline form of Example 2 was accurately weighed into a covered aluminum pan. After a 5 minute isothermal equilibration period at 22° C., the sample was heated using a linear heating ramp of 10° C./min from 22° C. to 250° C.

[2] = ratio of binding Ki at hSERT to Ki at hNET, rounded off to the nearest tenth
[3] = membranes of HEK-293 cells expressing hNET, 1.0 nM 3H-nisoxetine, read-out: NET pKi (converted)
[4] = ratio of SERT Ki to NET Ki from binding assays
[5] = hNET binding assay, read-out: NET pKi (converted)
[6] = ratio of SERT Ki to NET Ki (binding)
[7] = hNET binding, read-out: NET pKi (converted)

T1 sequence (P31645 whole entry): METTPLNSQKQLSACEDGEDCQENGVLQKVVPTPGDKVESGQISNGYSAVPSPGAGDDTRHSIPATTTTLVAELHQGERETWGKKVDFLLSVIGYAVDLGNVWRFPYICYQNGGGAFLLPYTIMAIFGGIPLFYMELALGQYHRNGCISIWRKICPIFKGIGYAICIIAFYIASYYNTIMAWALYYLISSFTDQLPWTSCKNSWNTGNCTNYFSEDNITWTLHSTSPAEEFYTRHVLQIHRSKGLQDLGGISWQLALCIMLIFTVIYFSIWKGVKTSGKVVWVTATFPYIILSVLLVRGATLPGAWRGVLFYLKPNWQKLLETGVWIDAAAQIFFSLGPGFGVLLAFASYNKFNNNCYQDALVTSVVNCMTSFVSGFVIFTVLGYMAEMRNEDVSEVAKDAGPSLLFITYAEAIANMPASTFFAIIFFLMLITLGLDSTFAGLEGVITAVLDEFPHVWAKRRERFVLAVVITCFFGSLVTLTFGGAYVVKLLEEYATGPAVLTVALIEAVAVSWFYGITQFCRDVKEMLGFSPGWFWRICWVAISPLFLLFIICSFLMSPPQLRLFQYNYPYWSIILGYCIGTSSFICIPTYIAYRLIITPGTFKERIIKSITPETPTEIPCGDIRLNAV

Structure (SMILES) | SERT Ki/NET Ki (hSERT; [2]) | Ki (hNET; [3]) [nM] | also measured
Fc1c(Oc2ccccc2)cccc1OC(c1ccccc1)C1CCNC1 (centres unmarked) [Compound 25-8] | 1.3 | 2.51 | –
Clc1c(Oc2ccccc2)cccc1OC(c1ccccc1)C1CCNC1 (centres unmarked) [Compound 25-15] | 0.2 | 2.51 | –
Cc1c(F)cccc1O[C@@H](c1ccccc1)[C@H]1CCNC1 [Compound 25-19] | 4 | 0.794 | –
Cc1c(Cl)cccc1OC(c1ccccc1)C1CCNC1 (centres unmarked) [Compound 25-20] | 0.2 | 0.631 | –
Cc1c(Cl)cccc1OC(c1ccccc1)C1CCNC1 (centres unmarked) [Compound 25-21] | 0.6 | 1.26 | –
Cc1c(Cl)cccc1O[C@H](c1ccccc1)[C@@H]1CCNC1 [Compound 25-22] | 0.2 | 0.631 | –
Cc1cccc(OC(c2ccccc2)C2CCNC2)c1C (centres unmarked) [Compound 25-23] | 0.1 | 1.58 | –
Cc1cccc(O[C@@H](c2ccccc2)[C@H]2CCNC2)c1C [Compound 25-24] | 0.3 | 2.51 | –
COc1c(F)cccc1O[C@@H](c1ccccc1)[C@H]1CCNC1 [Compound 25-26] | 13 | 1.26 | –
CC(=O)c1c(F)cccc1OC(c1ccccc1)C1CCNC1 (centres unmarked) [Compound 25-30] | 10 | 3.16 | –
COC(=O)c1c(F)cccc1OC(c1ccccc1)C1CCNC1 (centres unmarked) [Compound 25-34] | 100 | 1 | –
Fc1ccccc1C(Oc1cccc(Cl)c1Cl)C1CCNC1 (centres unmarked) [Compound 26-1] | – | – | SERT Ki/NET Ki (hSERT; [4]): 0.1; Ki (hNET; [5]): 1.58 nM
Clc1cccc(C(Oc2cccc(Cl)c2Cl)C2CCNC2)c1 (centres unmarked) [Compound 26-3] | – | – | SERT Ki/NET Ki (hSERT; [4]): 0.1; Ki (hNET; [5]): 5.01 nM
COc1cccc(C(Oc2cccc(Cl)c2Cl)C2CCNC2)c1 (centres unmarked) [Compound 26-6] | – | – | SERT Ki/NET Ki (hSERT; [4]): 0.1; Ki (hNET; [5]): 3.98 nM
CCOc1ccccc1OC(c1ccccc1)C1CCNC1 (centres unmarked) [Ex. 5, 3-[(2-Ethoxyphenoxy)phenylmethyl]pyrrolidine] | 32 | 1.26 | –
Fc1cc(F)c(Cl)c(O[C@@H](c2ccccc2)[C@H]2CCNC2)c1 [Ex. 8-1, (S)-3-[(R)-(2-Chloro-3,5-difluorophenoxy)phenylmethyl]pyrrolidine] | – | – | SERT Ki/NET Ki (hSERT; [6]): 2.5; Ki (hNET; [7]): 2 nM
Fc1cccc(O[C@@H](c2ccccc2)[C@H]2CCNC2)c1Cl [Ex. 9-4, (S)-3-[(R)-(2-chloro-3-fluorophenoxy)phenylmethyl]pyrrolidine] | 6.3 | 0.631 | –
Clc1cc(Cl)c(Cl)c(OC(c2ccccc2)C2CCNC2)c1Cl (centres unmarked) [Ex. 10-2, 3-[phenyl-(2,3,5,6-tetrachlorophenoxy)methyl]pyrrolidine] | – | – | SERT Ki/NET Ki (hSERT; ratio of binding Ki at SERT to Ki at NET, the tables list only compounds with a ratio in the range 0.1-100): 0.1; Ki (hNET; NET pKi, hNET binding, the tables list only compounds with NET pKi≧8): 1.26 nM
Fc1cc(F)c(Cl)c(O[C@@H](c2ccccc2)[C@H]2CCNC2)c1Cl [Ex. 11, (S)-3-[(R)-(2,6-dichloro-3,5-difluorophenoxy)phenylmethyl]pyrrolidine] | – | – | no thermal decomposition below (DSC) [1]: ≥ 190.7 °C
Cc1ccc(F)c(O[C@@H](c2ccccc2)[C@H]2CCNC2)c1Cl [Ex. 13, (S)-3-[(R)-(2-chloro-6-fluoro-3-methylphenoxy)phenylmethyl]pyrrolidine] | – | – | SERT Ki/NET Ki (hSERT; [6]): 1.3; Ki (hNET; [7]): 0.251 nM
Fc1ccc(F)c(O[C@H](c2ccccc2)[C@@H]2CCNC2)c1Cl [Ex. 14, (R)-3-[(S)-(2-chloro-3,6-difluorophenoxy)phenyl-methyl]pyrrolidine] | – | – | no thermal decomposition below (DSC) [1]: ≥ 160 °C
Clc1cc(Cl)cc(O[C@H](c2ccccc2)[C@@H]2CCNC2)c1 [Ex. 16, (R)-3-[(S)-(3,5-Dichlorophenoxy)phenylmethyl]pyrrolidine] | – | – | no thermal decomposition below (DSC) [1]: ≥ 220 °C
